Assay in all cases: NCI tumour cell line growth inhibition, 48 h
Assay [1] concerns ACHN renal.
In assay [2] the test system is COLO 205 colon.
The subject of assay [3] is DU-145 prostate.
Assay [4] concerns HCT-15 colon.
In assay [5] the test system is HT29 colon.
Assay [6] concerns M14 melanoma.
Assay [7] relates to OVCAR-4 ovarian.
Assay [8] deals with OVCAR-8 ovarian.
The subject of assay [9] is RPMI-8226 leukemia.
Assay [10] has as its system RXF 393 renal.

SMILES strings stand for the structures.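 These data come from cells grown in 96-well plates and exposed to compound for 48 hours at five concentrations. TGI: concentration producing complete growth inhibition.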

As for `COc1ccc2c(c1)-c1nc(=O)n(CCCN(C)C)c3ccc([N+](=O)[O-])c(c13)N2`, the TGI in assay [1] stood at 15 µM; in assay [2] it was 18.4 µM; in assay [3], 17.1 µM; in [4] it was 8.55 µM; in assay [5], 12.2 µM; in assay [6], 3.69 µM. Besides, the TGI in assay [7] is 7.34 µM; in assay [8] it was 19.4 µM; in assay [9], 0.694 µM.

As for `COc1ccc2[nH]c3c4c(cc(-c5ccccc5)c3c2c1)C(=O)N(c1ccccc1)C4=O`, the TGI in assay [1] is greater than 100 µM; in assay [2], greater than 100 µM; in assay [4], greater than 100 µM; in assay [5], greater than 100 µM; in assay [6], greater than 95.4 µM; in assay [7], 3.56 µM. In addition, the TGI was 39.6 µM in assay [8], greater than 100 µM in assay [9] and 69.7 µM in assay [10].

Take `O=C(Cc1ccccc1)N/N=C(/c1nc2ccc([N+](=O)[O-])cc2[nH]c1=O)C(O)c1ccc(C(O)/C(=N/NC(=O)Cc2ccccc2)c2nc3ccc([N+](=O)[O-])cc3[nH]c2=O)cc1` (configuration not stated): the TGI in assay [1], in assay [2], in assay [4], in [5], in assay [6] and in assay [7] was greater than 100 µM in each case. The TGI in assay [8], in assay [9] and in assay [10] was greater than 100 µM in each case.

For `O=C1Oc2cc3c(c4cccc1c24)OCN(c1ccccc1)C3`, the TGI in assay [1], in assay [2], in assay [4], in assay [5], in assay [6] and in assay [7] was greater than 100 µM in each case. In addition, the TGI in [8], in [9] and in [10] was greater than 100 µM throughout.

On to `Cc1cnc2c(c1)C(=O)N(c1ccc([N+](=O)[O-])cc1)S2(=O)=O`, for which the TGI in [1], in [2], in [3], in assay [4], in assay [5] and in [6] was greater than 100 µM each time. In addition, the TGI in [7], in assay [8] and in assay [9] was greater than 100 µM throughout.

On to `CC(=O)Oc1ccc(Nn2c3ccccc3c3ccccc32)c(C)c1`, for which the TGI is greater than 100 µM in assay [2]; 82.4 µM in [4]; 74.3 µM in assay [6]; 78.6 µM in assay [8]; 58.5 µM in [9]; 80.4 µM in assay [10].

Regarding `O=[N+]([O-])c1ccc(CN=C2NNS(=O)(=O)c3ccccc32)cc1`, the TGI in [1], in assay [2], in [4], in assay [5], in assay [6] and in assay [7] was greater than 100 µM in each case. Moreover, the TGI in [8], in assay [9] and in [10] was greater than 100 µM in each case.

Turning to `Cc1ccc(C(=O)N2CCCCC2)cc1N=NN(C)C`, the TGI in assay [1], in assay [2], in [4], in [5], in assay [6] and in assay [7] was greater than 100 µM in each case. Further, the TGI in assay [8] and in assay [9] was greater than 100 µM each time.

As for `COc1cc2cc3c4cc(OC)c(OC)cc4cc[n+]3c(C)c2cc1OC`, the TGI in [1], in [2], in [3], in [4], in assay [5] and in [7] was greater than 100 µM each time. Further, the TGI in [8] and in assay [9] was greater than 100 µM in each case.

For `CCCCCC#COC1CC(C)CC[C@@H]1C(C)C` (some centres not stated), the TGI in [1], in assay [2], in assay [4], in assay [5], in assay [6] and in [7] was greater than 100 µM in each case. Further, the values for the TGI in [8], in assay [9] and in assay [10] were greater than 100 µM, 69.7 µM and 86.9 µM, respectively.

With `CCCNCC(O)CNc1ccc(NCC(O)CNCCC)c2c1C(=O)c1ccccc1C2=O` (configuration not stated), the TGI was determined as 18.3 µM in [1]; 7.97 µM in assay [2]; 20.2 µM in assay [3]; 75 µM in [4]; 7.69 µM in assay [5]; 11 µM in assay [6]. The TGI in assay [7] amounted to 10.6 µM; in [8], 8.51 µM; in [9] it was 6.05 µM.

`CN1C(C)(C)CC(=O)C(Br)C1(C)C` (configuration not stated): the TGI in [1], in [2], in [3], in assay [4], in assay [5] and in assay [6] was greater than 100 µM each time. Moreover, the TGI in assay [7], in [8] and in assay [9] was greater than 100 µM in each case.

Take `O=C(CCN1CCC(CCO)CC1)Nc1ccc2c(c1)C(=O)c1ccc(NC(=O)CCN3CCC(CCO)CC3)cc1C2=O`: the TGI in assay [1] is greater than 100 µM; in [2] it was 64.6 µM; in assay [4], greater than 100 µM; in [5] it was greater than 100 µM; in [7], 63.2 µM; in assay [8], 61.6 µM. In addition, the TGI was 88.1 µM in assay [9] and greater than 100 µM in [10].

`COC1=CC(=O)c2c(cc3c(c2O)-c2c(OC)cc4cc5c(c(O)c4c2OC(=O)CC(C)(O)C3)C(=O)CC(C)(O)C5)C1=O` (configuration not stated): the TGI in assay [1] turned out to be 8.35 µM; in assay [2], 3.17 µM; in assay [4], 4.36 µM; in assay [5] it was 6.59 µM; in [6], 2.66 µM; in [7] it was 10.3 µM. Also, the TGI came to 6.49 µM in assay [8], 5.85 µM in assay [9] and 3.89 µM in [10].

On to `Cc1ccc(SCC(CF)OC(C)n2cnc3c(Cl)nc(N)nc32)cc1` (configuration not stated), for which the TGI in [1], in [2], in assay [3], in [4], in assay [5] and in [6] was greater than 100 µM throughout. In addition, the results for the TGI in assay [7], in assay [8] and in assay [9] were 52.6 µM, greater than 100 µM and greater than 100 µM, respectively.

With `O=C1C=CC(=O)c2cc(Sc3ccccc3)c(=O)c(Sc3ccccc3)cc21`, the TGI in [1] was 36 µM; in assay [2] it was greater than 100 µM; in assay [4], greater than 100 µM; in assay [5], greater than 100 µM; in assay [6] it was greater than 100 µM; in assay [7] it was greater than 100 µM. Further, the TGI in [8] is greater than 100 µM; in [9], greater than 100 µM; in assay [10], 51.2 µM.

Regarding `CC1CCC2CC1NC(=O)CCOCCC(=O)NC2(C)C` (configuration not stated), the TGI in [2], in assay [3], in assay [4], in [5], in assay [6] and in [7] was greater than 100 µM each time. Further, the TGI in assay [8] is greater than 100 µM.

For `COc1ccc(NS(=O)c2c(C)cc(C)cc2C)cc1` (configuration not stated), the TGI in [1], in assay [2], in assay [3], in [4], in [5] and in assay [6] was greater than 100 µM in each case. For the same compound, the TGI in [7], in assay [8] and in [9] was greater than 100 µM in each case.

For `COC(=O)[C@H](COC(C)(C)C)NC(=O)N[C@H](C)c1ccccc1`, the TGI in assay [1], in assay [2], in [3], in assay [4], in assay [5] and in assay [6] was greater than 100 µM in each case. The TGI in assay [7], in assay [8] and in [9] was greater than 100 µM throughout.

With `CC1=NC=C(O)c2ccccc2O1`, the TGI in assay [1], in [2], in assay [4], in [5], in assay [6] and in assay [7] was greater than 100 µM throughout. Also, the TGI in assay [8], in assay [9] and in [10] was greater than 100 µM throughout.

Take `C=CC(=O)NCNC(=O)C=C`: the TGI in assay [1], in assay [2], in assay [4], in assay [5], in assay [6] and in [7] was greater than 100 µM in each case. In addition, the TGI in assay [8] and in [9] was greater than 100 µM each time.

As for `CC(=O)N=c1ccc2nc(N)nn(O)c-2c1`, the TGI in assay [1], in [2], in [3], in assay [4], in assay [5] and in assay [6] was greater than 100 µM throughout. For the same compound, the TGI in assay [7], in assay [8] and in [9] was greater than 100 µM each time.

For the compound `O=C1CCCC2=C1CC1=C(CCCC1=O)N2c1ccc([N+](=O)[O-])cc1`, the TGI in [1], in [4], in [5], in assay [6], in assay [7] and in assay [8] was greater than 100 µM in each case. Besides, the TGI in [9] and in assay [10] was greater than 100 µM throughout.
